Target: human PDE10A (Homo sapiens (Human), UniProt Q9Y233)
Assay: human PDE10A full length assay ([3H]-cGMP SPA)
Type: biochemical
Conditions: human PDE10A full length enzyme, 50 nM cGMP + 50 nM [3H]-cGMP, 20 minutes at room temperature; read-out: PDE10A inhibition IC50
Protocol: The human PDE10A full length assay was performed in 96-well micro titer plates. The reaction mixture of 50 μl contained 20 mM HEPES pH=7.5/10 mM MgCl2/0.05 mg/ml BSA (Sigma cat. #A-7906), 50 nM cGMP (Sigma, cat. #G6129) and 50 nM [3H]-cGMP (GE Healthcare, cat. #TRK392 S.A. 13.2 Ci/mmol), 3.75 ng/well PDE10A enzyme (Enzo Life Science, Lausen, Switzerland cat #SE-534) with or without a specific test compound. A range of concentrations of the potential inhibitor was used to generate data for calculating the concentration of inhibitor resulting in 50% of the effect (e.g. IC50, the concentration of the competitor inhibiting PDE10A activity by 50%). Non-specific activity was tested without the enzyme. The reaction was initiated by the addition of the substrate solution (cGMP and [3H]-cGMP) and allowed to progress for 20 minutes at room temperature. The reaction was terminated by adding 25 μl of YSi-SPA scintillation beads (GE Healthcare, cat. #RPNQ0150) in 18 mM zinc sulphate solution (stop reagent). After 1 h under shaking, the plate was centrifuged one minute at 170 g to allow beads to settle. Afterwards, radioactive counts were measured on a Perkin Elmer TopCount Scintillation plate reader.

Chain of human PDE10A (Q9Y233 other isoform, or with tags, fused parts or gaps): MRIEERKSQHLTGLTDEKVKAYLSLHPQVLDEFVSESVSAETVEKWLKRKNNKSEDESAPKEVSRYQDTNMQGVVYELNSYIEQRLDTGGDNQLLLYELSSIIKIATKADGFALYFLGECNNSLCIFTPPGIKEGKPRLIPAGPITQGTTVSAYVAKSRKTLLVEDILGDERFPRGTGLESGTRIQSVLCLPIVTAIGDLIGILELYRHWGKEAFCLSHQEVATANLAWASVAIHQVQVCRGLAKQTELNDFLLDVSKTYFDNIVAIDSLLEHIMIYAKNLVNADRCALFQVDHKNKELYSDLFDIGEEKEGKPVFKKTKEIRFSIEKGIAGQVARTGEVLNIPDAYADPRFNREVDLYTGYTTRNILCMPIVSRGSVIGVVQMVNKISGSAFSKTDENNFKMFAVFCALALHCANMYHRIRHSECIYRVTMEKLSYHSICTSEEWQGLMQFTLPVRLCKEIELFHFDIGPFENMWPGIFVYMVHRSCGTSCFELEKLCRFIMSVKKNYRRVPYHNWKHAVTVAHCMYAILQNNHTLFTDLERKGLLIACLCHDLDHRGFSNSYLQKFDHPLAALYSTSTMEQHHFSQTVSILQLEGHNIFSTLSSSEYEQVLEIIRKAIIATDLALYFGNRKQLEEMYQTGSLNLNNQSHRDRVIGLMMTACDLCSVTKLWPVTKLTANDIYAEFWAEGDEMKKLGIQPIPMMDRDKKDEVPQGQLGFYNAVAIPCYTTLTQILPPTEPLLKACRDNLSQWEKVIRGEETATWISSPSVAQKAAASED

How did the IC50 turn out when `Cc1cc(C#Cc2nc(N3CCCC3)nn2C)nn2c(C)c(C(F)(F)F)nc12` [Example 54, 3,8-Dimethyl-6-((1-methyl-3-(pyrrolidin-1-yl)-1H-1,2,4-triazol-5-yl)ethynyl)-2-(trifluoro-methyl)imidazo[1,2-b]pyridazine] was run?
The IC50 was 1.6 nM.

For `Cc1c(C(F)F)nc2ccc(C#Cc3nc(N4CCCC4)nn3C)nn12` [Example 7, 2-(Difluoromethyl)-3-methyl-6-((1-methyl-3-(pyrrolidin-1-yl)-1H-1,2,4-triazol-5-yl)ethynyl)imidazo[1,2-b]pyridazine], which IC50 is on record?
Its IC50 is 5 nM.

For `Cc1nc2ccc(CCc3nc(N4CCCC4)nn3C)nn2c1C` [Example 2, 2,3-Dimethyl-6-(2-(1-methyl-3-(pyrrolidin-1-yl)-1H-1,2,4-triazol-5-yl)ethyl)-imidazo[1,2-b]pyridazine], which IC50 is on record?
Its IC50 is 11 nM.

Which IC50 does the source give for `Cc1nc2c(C(C)C)cc(CCc3nc(N4CCCC4)nn3C)nn2c1C` [Example 45, 8-Isopropyl-2,3-dimethyl-6-(2-(1-methyl-3-(pyrrolidin-1-yl)-1H-1,2,4-triazol-5-yl)ethyl)-imidazo[1,2-b]pyridazine] here?
Its IC50 is 9 nM.

“N-Ethyl-6,7-dimethyl-2-(2-(1-methyl-3-(pyrrolidin-1-yl)-1H-1,2,4-triazol-5-yl)ethyl)-imidazo[1,2-f][1,2,4]triazin-4-amine [Example 32]” was tested. Which IC50 did it give?
The IC50 was 6 nM.

For `Cc1c(C(F)(F)F)nc2ccc(C#Cc3nc(N4CCCC4)n(C)n3)nn12` [Example 4, 3-Methyl-6-((1-methyl-5-(pyrrolidin-1-yl)-1H-1,2,4-triazol-3-yl)ethynyl)-2-(trifluoromethyl)imidazo[1,2-b]pyridazine], which IC50 is on record?
The IC50 was 4 nM.

For `Cc1nc2c(C(C)C)cc(C#Cc3nc(N4CCCC4)nn3C)nn2c1C` [Example 44, 8-Isopropyl-2,3-dimethyl-6-((1-methyl-3-(pyrrolidin-1-yl)-1H-1,2,4-triazol-5-yl)ethynyl)imidazo[1,2-b]pyridazine], which IC50 is on record?
Its IC50 is 1 nM.

`CNC(=O)c1cc(C#Cc2nc(N3CCCC3)nn2C)nn2c(C)c(C(F)(F)F)nc12` [Example 69, N,3-Dimethyl-6-((1-methyl-3-(pyrrolidin-1-yl)-1H-1,2,4-triazol-5-yl)ethynyl)-2-(trifluoromethyl)imidazo[1,2-b]pyridazine-8-carboxamide] was tested. Which IC50 did it give?
The IC50 was 2.1 nM.

`Cc1c(C(F)(F)F)nc2c(OCC(F)(F)F)cc(CCc3nc(N4CCCC4)nn3C)nn12` [Example 63, 3-Methyl-6-(2-(1-methyl-3-(pyrrolidin-1-yl)-1H-1,2,4-triazol-5-yl)ethyl)-8-(2,2,2-trifluoroethoxy)-2-(trifluoromethyl)imidazo[1,2-b]pyridazine] was tested. Which IC50 did it give?
Its IC50 is 9.4 nM.

For `Cc1nc2c(Cl)nc(CCc3nc(N4CCCC4)nn3C)nn2c1C` [Example 15, 4-Chloro-6,7-dimethyl-2-(2-(1-methyl-3-(pyrrolidin-1-yl)-1H-1,2,4-triazol-5-yl)ethyl)imidazo[1,2-f][1,2,4]triazine], which IC50 is on record?
The IC50 was 4 nM.

With `CNC(=O)c1cc2nc(C)c(C)n2nc1C#Cc1nc(N2CCCC2)nn1C` [Example 39, N,2,3-Trimethyl-6-((1-methyl-3-(pyrrolidin-1-yl)-1H-1,2,4-triazol-5-yl)ethynyl)imidazo[1,2-b]pyridazine-7-carboxamide] as the compound, how does the IC50 read?
Its IC50 is 1400 nM.

`Cc1nc2c(S(C)(=O)=O)cc(C#Cc3nc(N4CCCC4)nn3C)nn2c1C` [Example 29, 2,3-Dimethyl-6-((1-methyl-3-(pyrrolidin-1-yl)-1H-1,2,4-triazol-5-yl)ethynyl)-8-(methylsulfonyl)imidazo[1,2-b]pyridazine] was tested. Which IC50 did it give?
The IC50 was 5 nM.

With `Cn1nc(N2CCCC2)nc1C#Cc1ccc2nc(Cl)cn2n1` [Example 36, 2-Chloro-6-((1-methyl-3-(pyrrolidin-1-yl)-1H-1,2,4-triazol-5-yl)ethynyl)imidazo[1,2-b]pyridazine] as the compound, how does the IC50 read?
Its IC50 is 56 nM.

With `COc1cc2nc(C)c(C)n2nc1C#Cc1nc(N2CCCC2)nn1C` [Example 60, 7-Methoxy-2,3-dimethyl-6-((1-methyl-3-(pyrrolidin-1-yl)-1H-1,2,4-triazol-5-yl)ethynyl)imidazo[1,2-b]pyridazine] as the compound, how does the IC50 read?
The IC50 was 2.7 nM.

For `Cc1nc2c(S(C)(=O)=O)cc(CCc3nc(N4CCCC4)nn3C)nn2c1C` [Example 33, 2,3-Dimethyl-6-(2-(1-methyl-3-(pyrrolidin-1-yl)-1H-1,2,4-triazol-5-yl)ethyl)-8-(methyl-sulfonyl)imidazo[1,2-b]pyridazine], which IC50 is on record?
The IC50 was 41 nM.

With `Cc1nc2ccc(CCc3nc(N4CCCC4)nn3C)nn2c1Cl` [Example 66, 3-Chloro-2-methyl-6-(2-(1-methyl-3-(pyrrolidin-1-yl)-1H-1,2,4-triazol-5-yl)ethyl)imidazo[1,2-b]pyridazine] as the compound, how does the IC50 read?
Its IC50 is 14.5 nM.

How did the IC50 turn out when `COc1nc(CCc2nc(N3CCCC3)nn2C)nn2c(C)c(C)nc12` [Example 13, 4-Methoxy-6,7-dimethyl-2-(2-(1-methyl-3-(pyrrolidin-1-yl)-1H-1,2,4-triazol-5-yl)ethyl)imidazo[1,2-f][1,2,4]triazine] was run?
Its IC50 is 2 nM.

For `Cc1nc2cc(C3CCC3)c(C#Cc3nc(N4CCCC4)nn3C)nn2c1C` [Example 51, 7-Cyclobutyl-2,3-dimethyl-6-((1-methyl-3-(pyrrolidin-1-yl)-1H-1,2,4-triazol-5-yl)ethynyl)imidazo[1,2-b]pyridazine], which IC50 is on record?
Its IC50 is 0.6 nM.

With `Cc1nc2c(N3CCCC3)cc(CCc3nc(N4CCCC4)nn3C)nn2c1C` [Example 19, 2,3-Dimethyl-6-(2-(1-methyl-3-(pyrrolidin-1-yl)-1H-1,2,4-triazol-5-yl)ethyl)-8-(pyrro-lidin-1-yl)imidazo[1,2-b]pyridazine] as the compound, how does the IC50 read?
Its IC50 is 5 nM.

With `COc1cc(CCc2nc(N3CCCC3)nn2C)nn2c(C)c(C(F)(F)F)nc12` [Example 10, 8-Methoxy-3-methyl-6-(2-(1-methyl-3-(pyrrolidin-1-yl)-1H-1,2,4-triazol-5-yl)ethyl)-2-(trifluoromethyl)imidazo[1,2-b]pyridazine] as the compound, how does the IC50 read?
Its IC50 is 2 nM.

`Cc1c(C#N)nc2ccc(/C=C/c3nc(N4CCCC4)nn3C)nn12` [Example 3, 3-Methyl-6-[(E)-2-(2-methyl-5-pyrrolidin-1-yl-2H-[1,2,4]triazol-3-yl)vinyl]-imidazo[1,2-b]pyridazine-2-carbonitrile] was tested. Which IC50 did it give?
Its IC50 is 5 nM.

Which IC50 does the source give for `Cn1nc(N2CCCC2)nc1CCc1ccc2nc3c(n2n1)CCC3` [Example 14, 5-[2-(2-Methyl-5-pyrrolidin-1-yl-2H-[1,2,4]triazol-3-yl)-ethyl]-2,3-dihydro-1H-3b,4,8-triaza-cyclopenta[a]indene] here?
Its IC50 is 41 nM.

How did the IC50 turn out when `Cc1c(C(F)(F)F)nn2ccc(C#Cc3nc(N4CCCC4)nn3C)nc12` [Example 71, 3-Methyl-5-[2-(2-methyl-5-pyrrolidin-1-yl-1,2,4-triazol-3-yl)ethynyl]-2-(trifluoromethyl)pyrazolo[1,5-a]pyrimidine] was run?
Its IC50 is 8.7 nM.

Which IC50 does the source give for “N-Ethyl-N,6,7-trimethyl-2-(2-(1-methyl-3-(pyrrolidin-1-yl)-1H-1,2,4-triazol-5-yl)ethyl)imidazo[1,2-f][1,2,4]triazin-4-amine [Example 34]” here?
Its IC50 is 5 nM.

How did the IC50 turn out when `Cc1nc2ccc(CCc3nc(N4CCCC4)nn3C)nn2c1CO` [Example 21, (2-Methyl-6-(2-(1-methyl-3-(pyrrolidin-1-yl)-1H-1,2,4-triazol-5-yl)ethyl)imidazo[1,2-b]-pyridazin-3-yl)methanol] was run?
Its IC50 is 194 nM.

For `Cc1nnc2ccc(C#Cc3nc(N4CCCC4)nn3C)nn12` [Example 56, 3-Methyl-6-((1-methyl-3-(pyrrolidin-1-yl)-1H-1,2,4-triazol-5-yl)ethynyl)[1,2,4]triazolo-[4,3-b]pyridazine], which IC50 is on record?
The IC50 was 38.2 nM.

Which IC50 does the source give for `Cc1c(C(F)(F)F)nc2ccc(OCc3nc(N4CCCC4)nn3C)nn12` [Example 23, 3-Methyl-6-((1-methyl-3-(pyrrolidin-1-yl)-1H-1,2,4-triazol-5-yl)methoxy)-2-(trifluoro-methyl)imidazo[1,2-b]pyridazine] here?
The IC50 was 290 nM.

For `Cc1nc2ccc(C#Cc3nc(N4CCCC4)nn3C)nn2c1Cl` [Example 65, 3-Chloro-2-methyl-6-((1-methyl-3-(pyrrolidin-1-yl)-1H-1,2,4-triazol-5-yl)ethynyl)imidazo[1,2-b]pyridazine], which IC50 is on record?
The IC50 was 2.5 nM.

With `Cc1nc2c(NC(C)C)nc(CCc3nc(N4CCCC4)nn3C)nn2c1C` [Example 31, N-Isopropyl-6,7-dimethyl-2-(2-(1-methyl-3-(pyrrolidin-1-yl)-1H-1,2,4-triazol-5-yl)ethyl)imidazo[1,2-f][1,2,4]triazin-4-amine] as the compound, how does the IC50 read?
Its IC50 is 3 nM.

With `Cc1c(C(F)(F)F)nn2ccc(CCc3nc(N4CCCC4)nn3C)nc12` [Example 72, 3-methyl-5-(2-(1-methyl-3-(pyrrolidin-1-yl)-1H-1,2,4-triazol-5-yl)ethyl)-2-(trifluoromethyl)pyrazolo[1,5-a]pyrimidine] as the compound, how does the IC50 read?
The IC50 was 32.9 nM.

For `Cc1nc2c(C3CCC3)cc(C#Cc3nc(N4CCCC4)nn3C)nn2c1C` [Example 47, 8-Cyclobutyl-2,3-dimethyl-6-((1-methyl-3-(pyrrolidin-1-yl)-1H-1,2,4-triazol-5-yl)ethynyl)imidazo[1,2-b]pyridazine], which IC50 is on record?
The IC50 was 0.9 nM.

How did the IC50 turn out when `Cc1nc2cc(C(C)C)c(C#Cc3nc(N4CCCC4)nn3C)nn2c1C` [Example 50, 7-Isopropyl-2,3-dimethyl-6-((1-methyl-3-(pyrrolidin-1-yl)-1H-1,2,4-triazol-5-yl)ethynyl)imidazo[1,2-b]pyridazine] was run?
The IC50 was 2.6 nM.

Source: patent publication US9617271B2, “Triazolo compounds” (Hoffmann-La Roche Inc., priority 2012, dated 2017)
